Measurements published in patent US8530487B1 (priority 2009, dated 2013).
Read-outs that look alike come from different tables or passages of the source.

Molecular target: human TRPA1 (Homo sapiens, UniProt O75762)
Experiment: cell-based

Sequence of human TRPA1 (O75762 whole entry): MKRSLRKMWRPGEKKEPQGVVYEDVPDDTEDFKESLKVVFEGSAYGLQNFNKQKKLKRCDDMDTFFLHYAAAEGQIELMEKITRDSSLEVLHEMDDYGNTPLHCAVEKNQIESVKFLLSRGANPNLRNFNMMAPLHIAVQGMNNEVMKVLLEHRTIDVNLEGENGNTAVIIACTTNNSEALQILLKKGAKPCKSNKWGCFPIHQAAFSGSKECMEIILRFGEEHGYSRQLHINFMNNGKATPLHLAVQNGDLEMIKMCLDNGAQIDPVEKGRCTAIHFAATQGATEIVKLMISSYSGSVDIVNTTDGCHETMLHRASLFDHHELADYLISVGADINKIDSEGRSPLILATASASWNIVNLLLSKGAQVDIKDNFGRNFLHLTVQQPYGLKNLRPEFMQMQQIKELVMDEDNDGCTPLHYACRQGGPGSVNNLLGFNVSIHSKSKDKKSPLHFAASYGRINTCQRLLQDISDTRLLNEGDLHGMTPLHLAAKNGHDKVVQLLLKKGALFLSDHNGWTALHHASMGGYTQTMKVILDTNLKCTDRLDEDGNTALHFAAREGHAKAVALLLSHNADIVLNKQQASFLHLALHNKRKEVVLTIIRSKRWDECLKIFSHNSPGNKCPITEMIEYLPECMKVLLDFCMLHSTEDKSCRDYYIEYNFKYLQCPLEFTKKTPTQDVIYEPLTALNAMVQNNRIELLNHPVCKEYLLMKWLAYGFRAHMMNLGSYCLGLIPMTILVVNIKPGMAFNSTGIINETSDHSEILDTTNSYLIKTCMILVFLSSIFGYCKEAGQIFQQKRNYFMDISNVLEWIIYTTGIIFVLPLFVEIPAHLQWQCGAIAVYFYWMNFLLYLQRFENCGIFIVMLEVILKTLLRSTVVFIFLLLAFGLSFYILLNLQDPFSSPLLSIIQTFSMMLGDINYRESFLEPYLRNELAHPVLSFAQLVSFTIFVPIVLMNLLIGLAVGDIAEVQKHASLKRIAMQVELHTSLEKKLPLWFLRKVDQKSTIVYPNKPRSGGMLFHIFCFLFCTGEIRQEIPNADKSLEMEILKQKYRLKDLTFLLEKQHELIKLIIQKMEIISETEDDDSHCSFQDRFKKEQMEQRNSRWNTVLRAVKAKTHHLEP

Compound	IC50 (read-out: Activity (IC50)) [nM]	IC50 [nM]
CCOc1cccc(C2NC(=O)N(CC(F)(F)F)C3=C2C(=O)c2ccccc23)c1 (centres unmarked) [Compound 605]	500 to 1000	
CCOc1cccc(C2NC(=O)N(Cc3ccccc3)C3=C2C(=O)c2ccccc23)c1 (centres unmarked) [Compound 606]	< 100	
CCOc1cccc(C2NC(=O)N(Cc3ccc(F)cc3)C3=C2C(=O)c2ccccc23)c1 (centres unmarked) [Compound 607]	100 to 500	
CCOC(=O)CN1C(=O)NC(c2cccc(OCC)c2)C2=C1c1ccccc1C2=O (centres unmarked) [Compound 608]	< 100	
CCOc1cccc(C2NC(=O)N(CC(=O)OC(C)(C)C)C3=C2C(=O)c2ccccc23)c1 (centres unmarked) [Compound 609]	500 to 1000	
CCOc1cccc(C2NC(=O)N(CC(=O)O)C3=C2C(=O)c2ccccc23)c1 (centres unmarked) [Compound 610]	> 1000	
CCOc1cccc(C2NC(=O)N(Cc3ccccn3)C3=C2C(=O)c2ccccc23)c1 (centres unmarked) [Compound 611]	> 1000	
CCOc1cccc(C2NC(=O)N(Cc3cccnc3)C3=C2C(=O)c2ccccc23)c1 (centres unmarked) [Compound 612]	100 to 500	
CCOc1cccc(C2NC(=O)N(Cc3ccncc3)C3=C2C(=O)c2ccccc23)c1 (centres unmarked) [Compound 613]	> 1000	
C=CCN1C(=O)NC(c2cccc(OCC)c2)C2=C1c1ccccc1C2=O (centres unmarked) [Compound 614]	100 to 500	
CCCOc1cccc(C2NC(=O)N(CC#N)C3=C2C(=O)c2ccccc23)c1 (centres unmarked) [Compound 615]	< 100	
CCOc1cccc(C2NC(=O)NC3=C2C(=O)c2ccccc23)c1F (centres unmarked) [Compound 616]	< 100	
CCOc1cccc(C2NC(=O)N(CC#N)C3=C2C(=O)c2ccccc23)c1F (centres unmarked) [Compound 617]	< 100	
N#CCN1C(=O)NC(c2cccc(OC(F)F)c2)C2=C1c1ccccc1C2=O (centres unmarked) [Compound 618]	< 100	
CCN1C(=O)NC(c2cccc(OC(F)F)c2)C2=C1c1ccccc1C2=O (centres unmarked) [Compound 619]	100 to 500	
O=C1C2=C(c3ccccc31)N(Cc1ccccc1)C(=O)NC2c1cccc(OC(F)F)c1 (centres unmarked) [Compound 620]	< 100	
COc1cccc(C2NC(=O)NC3=C2C(=O)c2ccccc23)c1 (centres unmarked) [Compound 621]		500 to 1000
COc1cccc(C2NC(=O)N(C)C3=C2C(=O)c2ccccc23)c1 (centres unmarked) [Compound 622]	100 to 500	
CCN1C(=O)NC(c2cccc(OC)c2)C2=C1c1ccccc1C2=O (centres unmarked) [Compound 623]	100 to 500	
CCCN1C(=O)NC(c2cccc(OC)c2)C2=C1c1ccccc1C2=O (centres unmarked) [Compound 624]	> 1000	
COc1cccc(C2NC(=O)N(Cc3ccccc3)C3=C2C(=O)c2ccccc23)c1 (centres unmarked) [Compound 625]	100 to 500	
COc1cccc(C2NC(=O)N(CCO)C3=C2C(=O)c2ccccc23)c1 (centres unmarked) [Compound 626]	> 1000	

Compound	IC50 (read-out: Activity (IC50)) [nM]	IC50 [nM]
COCCN1C(=O)NC(c2cccc(OC)c2)C2=C1c1ccccc1C2=O (centres unmarked) [Compound 627]	100 to 500	
COc1cccc(C2NC(=O)N(CCN(C)C)C3=C2C(=O)c2ccccc23)c1 (centres unmarked) [Compound 628]	> 1000	
C=CCOc1cccc(C2NC(=O)N(C)C3=C2C(=O)c2ccccc23)c1 (centres unmarked) [Compound 629]	< 100	
C=CCOc1cccc(C2NC(=O)N(CC)C3=C2C(=O)c2ccccc23)c1 (centres unmarked) [Compound 630]	< 100	
C=CCOc1cccc(C2NC(=O)N(CC(=O)OCC)C3=C2C(=O)c2ccccc23)c1 (centres unmarked) [Compound 631]	< 100	
C=CCOc1cccc(C2NC(=O)N(Cc3ccccc3)C3=C2C(=O)c2ccccc23)c1 (centres unmarked) [Compound 632]	< 100	
C=CCOc1cccc(C2NC(=O)N(Cc3ccc(F)cc3)C3=C2C(=O)c2ccccc23)c1 (centres unmarked) [Compound 633]	< 100	
C=CCOc1cccc(C2NC(=O)N(Cc3cccnc3)C3=C2C(=O)c2ccccc23)c1 (centres unmarked) [Compound 634]	< 100	
C=CCOc1cccc(C2NC(=O)N(Cc3ccncc3)C3=C2C(=O)c2ccccc23)c1 (centres unmarked) [Compound 635]	> 1000	
C=CCOc1cccc(C2NC(=O)N(Cc3ccccn3)C3=C2C(=O)c2ccccc23)c1 (centres unmarked) [Compound 636]	100 to 500	
C=CCOc1ccc(Cl)c(C2NC(=O)NC3=C2C(=O)c2ccccc23)c1 (centres unmarked) [Compound 637]	100 to 500	
C=CCOc1ccc(Cl)c(C2NC(=O)N(C)C3=C2C(=O)c2ccccc23)c1 (centres unmarked) [Compound 638]	< 100	
C=CCOc1cccc(C2NC(=O)N(C)C3=C2C(=O)c2ccccc23)c1Cl (centres unmarked) [Compound 639]	< 100	
C=CCOc1cccc(C2NC(=O)NC3=C2C(=O)c2ccccc23)c1Cl (centres unmarked) [Compound 640]	< 100	
CN1C(=O)NC(c2cccc(OCC3CC3)c2)C2=C1c1ccccc1C2=O (centres unmarked) [Compound 641]	100 to 500	
C=CCOc1cccc(C2NC(=O)NC3=C2C(=O)c2ccccc23)c1C(F)(F)F (centres unmarked) [Compound 642]	> 1000	
C=CCOc1cccc(C2NC(=O)N(C)C3=C2C(=O)c2ccccc23)c1C(F)(F)F (centres unmarked) [Compound 643]	> 1000	
CN1C(=O)NC(c2cccc(C#N)c2)C2=C1c1ccccc1C2=O (centres unmarked) [Compound 644]	> 1000	
CCCOc1cccc(C2NC(=O)N(C)C3=C2C(=O)c2ccccc23)c1 (centres unmarked) [Compound 645]	< 100	
CCCOc1cccc(C2NC(=O)N(CC)C3=C2C(=O)c2ccccc23)c1 (centres unmarked) [Compound 646]	< 100	
CCCOc1cccc(C2NC(=O)N(Cc3ccccc3)C3=C2C(=O)c2ccccc23)c1 (centres unmarked) [Compound 647]	< 100	

More lines, main results first:

IC50 (read-out: Activity (IC50)) [nM]	Compound	IC50 [nM]
< 100	CCCOc1ccc(F)c(C2NC(=O)N(CC#N)C3=C2C(=O)c2ccccc23)c1F (centres unmarked) [Compound 648]	
> 1000	C=CC(F)(F)Oc1cccc(C2NC(=O)N(Cc3ccccc3)C3=C2C(=O)c2ccccc23)c1 (centres unmarked) [Compound 649]	
100 to 500	CCOc1cccc(C2NC(=O)NC3=C2C(=O)c2cccnc23)c1F (centres unmarked) [Compound 901]	
100 to 500	CCOc1cccc(C2NC(=O)NC3=C2C(=O)c2cccnc23)c1 (centres unmarked) [Compound 902]	
< 100	CCCOc1cccc(C2NC(=O)NC3=C2C(=O)c2cccnc23)c1 (centres unmarked) [Compound 904]	
< 100	C=CCC(F)c1cccc(C2NC(=O)NC3=C2C(=O)c2cccnc23)c1 (centres unmarked) [Compound 905]	
100 to 500	CCCSc1cccc(C2NC(=O)NC3=C2C(=O)c2cccnc23)c1 (centres unmarked) [Compound 906]	
< 100	CCCC(F)c1cccc(C2NC(=O)NC3=C2C(=O)c2cccnc23)c1 (centres unmarked) [Compound 907]	
100 to 500	CCCC(O)c1cccc(C2NC(=O)NC3=C2C(=O)c2cccnc23)c1 (centres unmarked) [Compound 908]	
100 to 500	CCCC(=O)c1cccc(C2NC(=O)NC3=C2C(=O)c2cccnc23)c1 (centres unmarked) [Compound 909]	
> 1000	CCC[S+]([O-])c1cccc(C2NC(=O)NC3=C2C(=O)c2cccnc23)c1 (centres unmarked) [Compound 910]	
> 1000	CCCS(=O)(=O)c1cccc(C2NC(=O)NC3=C2C(=O)c2cccnc23)c1 (centres unmarked) [Compound 911]	
< 100	CCCOc1ccc(F)c(C2NC(=O)NC3=C2C(=O)c2cccnc23)c1F (centres unmarked) [Compound 912]	
> 1000	C=CCOc1cccc(C2NC(=NC#N)NC3=C2C(=O)c2ccccc23)c1 (centres unmarked) [Compound 950]	
> 1000	N#CN=C1NC2=C(C(=O)c3ccccc32)C(c2cccc(OCC3CC3)c2)N1 (centres unmarked) [Compound 951]	
> 1000	CN1C(=NC#N)NC2=C(C(=O)c3ccccc32)C1c1cccc(OCC2CC2)c1 (centres unmarked) [Compound 952]	
> 1000	CN1C(=NC#N)NC2=C(C(=O)c3c(Cl)cccc32)C1c1cccc(OCC2CC2)c1 (centres unmarked) [Compound 953]	
> 1000	N#CN=C1NC2=C(C(=O)c3c(Cl)cccc32)C(c2cccc(OCC3CC3)c2)N1 (centres unmarked) [Compound 954]	
> 1000	N#CN=C1NC2=C(C(=O)c3ccccc32)C(c2cccc(C#N)c2)N1 (centres unmarked) [Compound 955]	
> 1000	N#CN=C1NC2=C(C(=O)c3ccccc32)C(c2ccccc2)N1 (centres unmarked) [Compound 956]	
> 1000	N#CN=C1NC2=C(C(=O)c3ccccc32)C(c2cccc(OCC3CC3)c2Cl)N1 (centres unmarked) [Compound 957]	
> 1000	N#CN=C1NC2=C(C(=O)c3ccccc32)C(c2cccc(OCC3CCC3)c2)N1 (centres unmarked) [Compound 958]	
> 1000	CC(C)COc1cccc(C2NC(=NC#N)NC3=C2C(=O)c2ccccc23)c1 (centres unmarked) [Compound 959]	
> 1000	CCCOc1cccc(C2NC(=NC#N)NC3=C2C(=O)c2ccccc23)c1 (centres unmarked) [Compound 960]	
> 1000	C=CCOc1cccc(C2NC(=NC#N)N(Cc3ccccc3)C3=C2C(=O)c2ccccc23)c1 (centres unmarked) [Compound 961]	
